Source: patent publication US6706703B2, “Bis(5-aryl-2-pyridyl) derivatives” (Kowa Co., Ltd., priority 2001, dated 2004)
Structures can show the parent of a compound that is named as a salt. Marks after values point to notes of the source that are not given here.

What was measured:
IgE antibody production = assay: Evaluation of IgE antibody production inhibiting activity (B cells + LPS + mouse IL-4, IgE in culture supernatant by ELISA); assay type: cell-based; conditions: B-cell, mouse (Balb/C) spleen B cells, LPS 1 day then mouse IL-4 6 days
Procedure: Test 1 (Evaluation of IgE Antibody Production Inhibiting Activity)
From a mouse (Balb/C, male, 8 weeks old), the spleen was enucleated. The spleen was shredded in 10% FEB/RPMI 1640, and was then disintegrated into single cells through a 70-mesh screen. Those single cells were hemolyzed with Gey's solution, and using RPMI 1640 medium/25 mM HEPES/0.3% BSA, a spleen cell suspension (1×10^7 cells/mL) was prepared. After an aliquot of the suspension was reacted with a rat anti-mouse Thy-1.2 monoclonal antibody (product of Cedarlane Laboratories Limited) at 4° C. for 1 hour, centrifugation was conducted. Precipitated cells were suspended again (1×10^7 cells/mL, RPMI/HEPES/BSA). After the suspension was next reacted with a low-cytotoxic rabbit complement (product of Cedarlane Laboratories Limited) at 37° C. for 1 hour, dead cells were removed by specific gravity centrifugation using Lympholyte M (product of Cedarlane Laboratories Limited) so that a B cell fraction was obtained as viable cells.
Using a 96-well plate, the B cells (2×10^5 cells/0.2 mL/well) were incubated together with LPS (E. coli 026:B6, product of DIFCO Laboratories, Inc.) for 1 day. Mouse IL-4 (product of Genzyme Corp.) was then added, followed by further incubation for 6 days.
The IgE antibody production inhibiting activity of each drug was calculated by adding the drug Day 1 of the incubation and assaying the quantity of IgE in the culture supernatant by ELISA after the incubation.

[1] = Solubility of each compound in water; assay type: physicochemical
Excerpt: Further, the solubility (%) of each compound in water was also estimated.

[2] = solubility in 0.1M hydrochloric acid (footnote *)

SMILES | IC50 (IgE antibody production) | Water solubility [1, 2] | Water solubility ([1]; in water)
COc1cc(-c2ccc(N3CCN(CCCN4CCN(c5ccc(-c6cc(OC)c(OC)c(OC)c6)cn5)CC4)CC3)nc2)cc(OC)c1OC [Example 57, 1,3-Bis[4-[5-(3,4,5-trimethoxyphenyl)-2-pyridyl]-1-piperazinyl]propane] | 100 nM | 5* % | –
COc1cc(-c2ccc(N(C)CCN(C)c3ccc(-c4cc(OC)c(OC)c(OC)c4)cn3)nc2)cc(OC)c1OC [Example 58, N,N′-Bis[5-(3,4,5-trimethoxyphenyl)-2-pyridyl]-N,N′-dimethylethylenediamine Dimethanesulfonate] | 200 nM | – | 5%
COc1cc(-c2ccc(N3CCCN(c4ccc(-c5cc(OC)c(N(C)C)c(OC)c5)cn4)CC3)nc2)cc(OC)c1N(C)C [Example 35, 1,4-Bis[5-(4-dimethylamino-3,5-dimethoxyphenyl)-2-pyridyl]hexahydro-1,4-diazepine] | 200 nM | 5* % | –
COc1cc(-c2ccc(N3CCCN(c4ccc(-c5cc(OC)c(OC)c(OC)c5)cn4)CC3)nc2)cc(OC)c1OC [Example 26, 1,4-Bis[5-(3,4,5-trimethoxyphenyl)-2-pyridyl]hexahydro-1,4-diazepine Dimethanesulfonate] | 200 nM | – | 5%
COc1cc(-c2ccc(N3CCCN(c4ccc(-c5cc(OC)c(N)c(OC)c5)cn4)CC3)nc2)cc(OC)c1N [Example 34, 1,4-Bis[5-(4-amino-3,5-dimethoxyphenyl)-2-pyridyl]hexahydro-1,4-diazepine Tetrahydrochloride] | 300 nM | – | 5%
